Data on one molecule can be found in paper PMC11039737, “Exploring a repurposed candidate with dual hIDO1/hTDO2 inhibitory potential for anticancer efficacy identified through pharmacophore-based virtual screening and in vitro evaluation” (Scientific Reports, 2024).

Assay [1] addresses T1, human Indoleamine 2,3-dioxygenase 1 (hIDO1) (Homo sapiens, UniProt P14902).
T1 construct: gene IDO1
As to the kind of experiment: IDO1 Inhibitor Screening Assay Kit (Catalog # […]), enzymatic dose response. Format: biochemical.

Assay [2] addresses T2, human Tryptophan 2,3-dioxygenase 2 (hTDO2) (Homo sapiens, UniProt P48775).
T2 construct: gene TDO2
Briefly: TDO2 Fluorogenic Inhibitor Screening Assay Kit (Catalog # […]), enzymatic dose response. It is filed as biochemical.

T2 sequence (P48775 whole entry): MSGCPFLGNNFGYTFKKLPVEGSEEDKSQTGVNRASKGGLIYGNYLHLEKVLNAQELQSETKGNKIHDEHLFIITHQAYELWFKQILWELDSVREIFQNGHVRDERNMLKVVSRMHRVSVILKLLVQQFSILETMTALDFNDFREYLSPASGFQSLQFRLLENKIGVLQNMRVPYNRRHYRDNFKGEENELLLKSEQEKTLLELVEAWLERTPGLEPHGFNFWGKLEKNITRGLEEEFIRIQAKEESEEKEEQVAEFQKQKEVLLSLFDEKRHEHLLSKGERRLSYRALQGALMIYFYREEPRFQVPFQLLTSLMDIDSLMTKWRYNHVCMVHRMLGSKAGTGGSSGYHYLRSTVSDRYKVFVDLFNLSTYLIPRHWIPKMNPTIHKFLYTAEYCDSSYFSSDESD
T1 sequence (P14902 whole entry): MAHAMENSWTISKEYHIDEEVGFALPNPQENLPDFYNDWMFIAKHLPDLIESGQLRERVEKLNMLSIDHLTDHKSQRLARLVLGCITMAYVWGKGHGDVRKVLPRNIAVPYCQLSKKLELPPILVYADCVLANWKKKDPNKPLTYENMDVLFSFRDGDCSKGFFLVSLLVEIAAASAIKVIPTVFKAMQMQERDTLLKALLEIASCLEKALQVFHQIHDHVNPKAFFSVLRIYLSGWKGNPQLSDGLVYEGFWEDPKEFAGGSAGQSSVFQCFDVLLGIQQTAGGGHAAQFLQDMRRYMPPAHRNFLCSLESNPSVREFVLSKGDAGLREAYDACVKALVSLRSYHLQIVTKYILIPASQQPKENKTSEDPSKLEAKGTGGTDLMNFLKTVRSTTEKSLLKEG

Take `O=C(O)C[C@H](O)C[C@H](O)/C=C/c1c(C2CC2)nc2ccccc2c1-c1ccc(F)cc1` [Pitavastatin]: the values for the IC50 in assay [1] and in assay [2] were 351 ± 16 nM and 588 ± 27 nM, respectively.

As usually defined, the IC50 is the point on the concentration scale where inhibition reaches its midpoint. Read a low IC50 as greater potency.
